According to PubChem BioAssay AID330 (DTP/NCI, 2004):
“And” between values parts separate entries of the source, which are not always exact repeats. Equal values may be shown once. Toxic doses and inconclusive results are not listed. The calls were made as follows: active = survival T/C of 150% or more; inactive = T/C below 125% in these data.

System: P388 leukemia ip, CD2F1 mice, survival T/C
Assay: NCI In Vivo Anticancer Drug Screen. Data for tumor model P388 Leukemia (intraperitoneal) in CD2F1 (CDF1) mice
Settings: endpoint: median survival time, higher = longer survival
Method in brief: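 Mice carrying the transplanted tumor received test compound or vehicle. Survival was recorded in each group, and the value is the treated-group measurement divided by that of the vehicle-treated control group.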

[1] = dose: 50.0 mg/kg/injection, schedule: Q01DX005 (ip), vehicle: saline with Tween-80
[2] = dose: 50.0 mg/kg/injection, schedule: Q01DX005 (ip), vehicle: Klucel (hydroxypropylcellulose) (HPC)
[3] = dose: 100.0 mg/kg/injection, schedule: Q01DX005 (ip), vehicle: Klucel (hydroxypropylcellulose) (HPC)
[4] = dose: 200.0 mg/kg/injection, schedule: Q01DX005 (ip), vehicle: Klucel (hydroxypropylcellulose) (HPC)
[5] = dose: 60.0 mg/kg/injection, schedule: Q01DX005 (ip), vehicle: Klucel (hydroxypropylcellulose) (HPC)
[6] = dose: 120.0 mg/kg/injection, schedule: Q01DX005 (ip), vehicle: Klucel (hydroxypropylcellulose) (HPC)
[7] = dose: 50.0 mg/kg/injection, schedule: Q01DX009 (ip), vehicle: saline with Tween-80
[8] = dose: 100.0 mg/kg/injection, schedule: Q01DX009 (ip), vehicle: saline with Tween-80

Measured: T/C

NC(CCC(=O)NC(CS(=O)(=O)O)C(=O)O)C(=O)O (stereo unspecified)
inactive: dose: 60.0 mg/kg/injection, schedule: Q01DX005 (ip), vehicle: saline 108 % of control | dose: 120.0 mg/kg/injection, schedule: Q01DX005 (ip), vehicle: saline 108 % of control | dose: 240.0 mg/kg/injection, schedule: Q01DX005 (ip), vehicle: saline 108 % of control

C[C@@]12CCC[C@@H]1OC(=O)C2
inactive: [1] 98 % of control

CN(C)c1ccc(/C=C/c2cc[n+](C)c(/C=C/c3ccc(N(C)C)cc3)c2)cc1
inactive: dose: 0.78 mg/kg/injection, schedule: Q01DX005 (ip), vehicle: saline 115 % of control | dose: 1.56 mg/kg/injection, schedule: Q01DX005 (ip), vehicle: saline 119 % of control

Nc1nc2c(ncn2C2OC(CO)C(O)C2O)c(=O)[nH]1.Nc1nc2c(ncn2C2OC(CO)C(O)C2O)c(=O)[nH]1.[NH2-].[NH2-].[Pt+2] (stereo unspecified)
inactive: dose: 6.25 mg/kg/injection, schedule: Q01DX009 (ip), vehicle: saline 101 % of control | dose: 12.5 mg/kg/injection, schedule: Q01DX009 (ip), vehicle: saline 100 % of control and 108 % of control | dose: 25.0 mg/kg/injection, schedule: Q01DX009 (ip), vehicle: saline 100 % of control and 107 % of control | dose: 50.0 mg/kg/injection, schedule: Q01DX009 (ip), vehicle: saline 100 % of control and 113 % of control and 107 % of control | dose: 50.0 mg/kg/injection, schedule: Q04DX003 (ip), vehicle: saline 100 % of control | dose: 100.0 mg/kg/injection, schedule: Q01DX009 (ip), vehicle: saline 112 % of control and 121 % of control and 116 % of control | dose: 100.0 mg/kg/injection, schedule: Q04DX003 (ip), vehicle: saline 120 % of control | dose: 200.0 mg/kg/injection, schedule: Q04DX003 (ip), vehicle: saline 110 % of control
active: dose: 50.0 mg/kg/injection, schedule: Q01DX009 (ip), vehicle: water 175 % of control | dose: 100.0 mg/kg/injection, schedule: Q01DX009 (ip), vehicle: water 174 % of control | dose: 200.0 mg/kg/injection, schedule: Q01DX009 (ip), vehicle: saline 163 % of control and 177 % of control | dose: 400.0 mg/kg/injection, schedule: Q01DX009 (ip), vehicle: saline 224 % of control and 227 % of control

Cc1ccc(S(=O)(=O)N/N=C/C=C\C(=O)O)cc1
inactive: dose: 12.5 mg/kg/injection, schedule: Q01DX009 (ip), vehicle: distilled water + Tween-80 101 % of control | dose: 25.0 mg/kg/injection, schedule: Q01DX009 (ip), vehicle: distilled water + Tween-80 99 % of control | dose: 50.0 mg/kg/injection, schedule: Q01DX009 (ip), vehicle: distilled water + Tween-80 107 % of control | dose: 100.0 mg/kg/injection, schedule: Q01DX009 (ip), vehicle: distilled water + Tween-80 100 % of control | dose: 200.0 mg/kg/injection, schedule: Q01DX009 (ip), vehicle: distilled water + Tween-80 94 % of control | dose: 400.0 mg/kg/injection, schedule: Q01DX009 (ip), vehicle: distilled water + Tween-80 110 % of control

O=[N+]([O-])C1CCC(N=Nc2c(O)ccc3ccccc23)CC1 (stereo unspecified)
inactive: dose: 60.0 mg/kg/injection, schedule: Q01DX005 (ip), vehicle: saline with Tween-80 96 % of control | dose: 120.0 mg/kg/injection, schedule: Q01DX005 (ip), vehicle: saline with Tween-80 99 % of control | dose: 240.0 mg/kg/injection, schedule: Q01DX005 (ip), vehicle: saline with Tween-80 99 % of control

CCCC#CC#N
inactive: dose: 50.0 mg/kg/injection, schedule: Q01DX009 (ip), vehicle: olive oil, sesame oil, peanut oil 116 % of control

COc1cc(Br)c(C(=O)N2CCCc3ccccc32)cc1OC
inactive: dose: 12.5 mg/kg/injection, schedule: Q01DX009 (ip), vehicle: other 101 % of control | dose: 25.0 mg/kg/injection, schedule: Q01DX009 (ip), vehicle: other 94 % of control | dose: 50.0 mg/kg/injection, schedule: Q01DX009 (ip), vehicle: other 91 % of control | dose: 100.0 mg/kg/injection, schedule: Q01DX009 (ip), vehicle: other 91 % of control | dose: 200.0 mg/kg/injection, schedule: Q01DX009 (ip), vehicle: other 94 % of control

COc1cc(C(=O)c2ccc3c(c2)OCO3)cc(OC)c1OC
inactive: [2] 98 % of control | [3] 93 % of control | [4] 99 % of control

O=c1c2ccccc2c2ccccc2c(=O)n1-c1cc2c3ccccc3ccc2c2ccccc12
inactive: [5] 100 % of control | [6] 99 % of control | dose: 240.0 mg/kg/injection, schedule: Q01DX005 (ip), vehicle: Klucel (hydroxypropylcellulose) (HPC) 95 % of control

O=[N+]([O-])c1ccc(-c2nc(/C=N/N3CCCCC3)cs2)o1
inactive: dose: 25.0 mg/kg/injection, schedule: Q01DX009 (ip), vehicle: saline with Tween-80 100 % of control | [7] 100 % of control | [8] 99 % of control

CN(C)CCSc1c2ccccc2nc2ccccc12
inactive: dose: 12.5 mg/kg/injection, schedule: Q01DX005 (ip), vehicle: Klucel (hydroxypropylcellulose) (HPC) 110 % of control | dose: 25.0 mg/kg/injection, schedule: Q01DX005 (ip), vehicle: Klucel (hydroxypropylcellulose) (HPC) 110 % of control and 119 % of control | [2] 100 % of control (2×) and 101 % of control

O=S(=O)(Oc1cccc2ccccc12)C(F)(F)C(F)(F)C(F)(F)C(F)(F)F
inactive: [7] 108 % of control | [8] 108 % of control | dose: 200.0 mg/kg/injection, schedule: Q01DX009 (ip), vehicle: saline with Tween-80 105 % of control

CC1(C)CC(NCc2ccccc2)=CC(=S)N1
inactive: [2] 100 % of control | [3] 103 % of control | [4] 93 % of control

O=C1CC2C(C1Nc1ccccc1)C1C(=Nc3ccccc3)C(Nc3ccccc3)=CC1N2c1ccccc1 (stereo unspecified)
inactive: dose: 7.5 mg/kg/injection, schedule: Q01DX005 (ip), vehicle: Klucel (hydroxypropylcellulose) (HPC) 100 % of control | dose: 15.0 mg/kg/injection, schedule: Q01DX005 (ip), vehicle: Klucel (hydroxypropylcellulose) (HPC) 97 % of control | dose: 30.0 mg/kg/injection, schedule: Q01DX005 (ip), vehicle: Klucel (hydroxypropylcellulose) (HPC) 95 % of control

CC(C)(C)C(=O)CC(O)(C(F)(F)Cl)C(F)(F)Cl
inactive: dose: 50.0 mg/kg/injection, schedule: Q04DX003 (ip), vehicle: saline with Tween-80 90 % of control | dose: 100.0 mg/kg/injection, schedule: Q04DX003 (ip), vehicle: saline with Tween-80 95 % of control | dose: 200.0 mg/kg/injection, schedule: Q04DX003 (ip), vehicle: saline with Tween-80 105 % of control

O=C(c1ccccc1)N1OC12CCCCC2
inactive: [2] 102 % of control | [3] 99 % of control

CC(C)CNC(=O)c1ccccc1C(=O)NC1(C(=O)NCC(C)C)CCCC1
inactive: [1] 87 % of control | dose: 100.0 mg/kg/injection, schedule: Q01DX005 (ip), vehicle: saline with Tween-80 86 % of control | dose: 200.0 mg/kg/injection, schedule: Q01DX005 (ip), vehicle: saline with Tween-80 94 % of control

C=CCC(C(C)=O)C(C)=NCCN=C(C)C(CC=C)C(C)=O.[Cu] (stereo unspecified)
inactive: dose: 6.25 mg/kg/injection, schedule: Q01DX005 (ip), vehicle: saline with Tween-80 110 % of control | dose: 12.5 mg/kg/injection, schedule: Q01DX005 (ip), vehicle: saline with Tween-80 96 % of control

O=C(NC(Cc1ccc(Br)cc1)C(=O)O)c1ccc(Br)cc1 (stereo unspecified)
inactive: [2] 104 % of control | [3] 101 % of control | [4] 104 % of control

CC(=O)Nc1ccc(S(=O)(=O)Oc2noc3ccccc23)cc1
inactive: [2] 108 % of control | [3] 96 % of control | [4] 102 % of control

COC1(NS(=O)(=O)c2ccc(C)cc2)CC1
inactive: [5] 103 % of control | [6] 91 % of control

N=C(N)c1nn[nH]n1
inactive: dose: 12.5 mg/kg/injection, schedule: Q04DX003 (ip), vehicle: Klucel (hydroxypropylcellulose) (HPC) 100 % of control | dose: 25.0 mg/kg/injection, schedule: Q04DX003 (ip), vehicle: Klucel (hydroxypropylcellulose) (HPC) 100 % of control | dose: 50.0 mg/kg/injection, schedule: Q04DX003 (ip), vehicle: Klucel (hydroxypropylcellulose) (HPC) 97 % of control | dose: 100.0 mg/kg/injection, schedule: Q04DX003 (ip), vehicle: Klucel (hydroxypropylcellulose) (HPC) 103 % of control | dose: 200.0 mg/kg/injection, schedule: Q04DX003 (ip), vehicle: Klucel (hydroxypropylcellulose) (HPC) 100 % of control

CCN(CC)CCNc1ccc(O)c2sc3ccccc3c(=O)c12
inactive: dose: 6.25 mg/kg/injection, schedule: Q01DX009 (ip), vehicle: saline + alcohol 94 % of control | dose: 12.5 mg/kg/injection, schedule: Q01DX009 (ip), vehicle: saline + alcohol 89 % of control | dose: 25.0 mg/kg/injection, schedule: Q01DX009 (ip), vehicle: saline + alcohol 99 % of control | dose: 50.0 mg/kg/injection, schedule: Q01DX009 (ip), vehicle: saline + alcohol 103 % of control
